Test results reported in PubChem BioAssay AID1963962 (Molecular Pharmacology Branch, DTP, NCI, 2024).

Tested on: 967376-340-R-J2-PDC multicell spheroid viability
Test: Anticancer human tumor 967376-340-R-J2-PDC patient-derived colon adenocarcinoma cell line growth inhibition [PI3K]
Settings: for IC50: curve of first compound; for viability, T/C: stronger effect = lower value
How it was run: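 Combination activity was assessed by viability in multicellular tumor spheroids carrying HUVEC and MSC components. Agents were tested with PI3K inhibitors from a Cmax-based top dose (or 10 microM) downward in half-log increments.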

[1] = second compound 0.00316 µM, first compound 0.0316 µM
[2] = second compound 0.00316 µM, first compound 0.1 µM
[3] = second compound 0.00316 µM, first compound 0.316 µM
[4] = second compound 0.00316 µM, first compound 1 µM
[5] = second compound 0.01 µM, first compound 0.0316 µM
[6] = second compound 0.01 µM, first compound 0.1 µM
[7] = second compound 0.01 µM, first compound 0.316 µM
[8] = second compound 0.01 µM, first compound 1 µM
[9] = second compound 0.0316 µM, first compound 0.0316 µM
[10] = second compound 0.0316 µM, first compound 0.1 µM
[11] = second compound 0.0316 µM, first compound 0.316 µM
[12] = second compound 0.0316 µM, first compound 1 µM
[13] = second compound 0.1 µM, first compound 0.0316 µM
[14] = second compound 0.1 µM, first compound 0.1 µM
[15] = second compound 0.1 µM, first compound 0.316 µM
[16] = second compound 0.1 µM, first compound 1 µM
[17] = second compound 0.316 µM, first compound 0.0316 µM
[18] = second compound 0.316 µM, first compound 0.1 µM
[19] = second compound 0.316 µM, first compound 0.316 µM
[20] = second compound 0.316 µM, first compound 1 µM
[21] = second compound 1 µM, first compound 0.0316 µM
[22] = second compound 1 µM, first compound 0.1 µM
[23] = second compound 1 µM, first compound 0.316 µM
[24] = second compound 1 µM, first compound 1 µM
[25] = second compound 0.00316 µM, first compound 3.16 µM
[26] = second compound 0.00316 µM, first compound 10 µM
[27] = second compound 0.01 µM, first compound 3.16 µM
[28] = second compound 0.01 µM, first compound 10 µM
[29] = second compound 0.0316 µM, first compound 3.16 µM
[30] = second compound 0.0316 µM, first compound 10 µM
[31] = second compound 0.1 µM, first compound 3.16 µM
[32] = second compound 0.1 µM, first compound 10 µM
[33] = second compound 0.316 µM, first compound 3.16 µM
[34] = second compound 0.316 µM, first compound 10 µM
[35] = second compound 1 µM, first compound 3.16 µM
[36] = second compound 1 µM, first compound 10 µM
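Also: spheroids exposed to agents for 7 days before read-out.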
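For viability, T/C in this document: luminescence used as surrogate of cell viability.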

For `CCN1CCN(Cc2ccc(Nc3ncc(F)c(-c4cc(F)c5nc(C)n(C(C)C)c5c4)n3)nc2)CC1` + COc1c(OCCCN2CCOCC2)ccc2c3n(c(=NC(=O)c4cnc(N)nc4)nc12)CCN3, the IC50 (second compound 0.00316 µM) was > 1000 nM, the IC50 (second compound 0.01 µM) was > 1000 nM and the IC50 (second compound 0.0316 µM) was 769 nM. The IC50 (second compound 0.1 µM) was 25 nM, the IC50 (second compound 0.316 µM) was < 3.16 nM and the IC50 (second compound 1 µM) was < 3.16 nM. The viability, T/C (second compound 0.00316 µM, first compound 0.00316 µM) was 85.1%, the viability, T/C (second compound 0.00316 µM, first compound 0.01 µM) was 95.7% and the viability, T/C [1] was 87.6%. For the same compound, the viability, T/C [2] was 83.5%, the viability, T/C [3] was 79.7% and the viability, T/C [4] was 70.8%. For the same compound, the viability, T/C (second compound 0.01 µM, first compound 0.00316 µM) was 85.3%, the viability, T/C (second compound 0.01 µM, first compound 0.01 µM) was 77.9% and the viability, T/C [5] was 62.4%. It also gave a viability, T/C [6] of 71.1%, a viability, T/C [7] of 73.2% and a viability, T/C [8] of 60.6%. For the same compound, the viability, T/C (second compound 0.0316 µM, first compound 0.00316 µM) was 68.6%, the viability, T/C (second compound 0.0316 µM, first compound 0.01 µM) was 68.4% and the viability, T/C [9] was 71.4%. For the same compound, the viability, T/C [10] was 52.3%, the viability, T/C [11] was 63.6% and the viability, T/C [12] was 46.5%. It also gave a viability, T/C (second compound 0.1 µM, first compound 0.00316 µM) of 66%, a viability, T/C (second compound 0.1 µM, first compound 0.01 µM) of 57.6% and a viability, T/C [13] of 48.2%. It also gave a viability, T/C [14] of 40.1%, a viability, T/C [15] of 39.2% and a viability, T/C [16] of 34.9%. For the same compound, the viability, T/C (second compound 0.316 µM, first compound 0.00316 µM) was 53.2%, the viability, T/C (second compound 0.316 µM, first compound 0.01 µM) was 34.8% and the viability, T/C [17] was 43.4%. For the same compound, the viability, T/C [18] was 43.3%, the viability, T/C [19] was 42.4% and the viability, T/C [20] was 29.6%. The viability, T/C (second compound 1 µM, first compound 0.00316 µM) was 42.2%, the viability, T/C (second compound 1 µM, first compound 0.01 µM) was 35.5% and the viability, T/C [21] was 38.4%. It also gave a viability, T/C [22] of 22.8%, a viability, T/C [23] of 28.4% and a viability, T/C [24] of 30.3%.
With `Cn1ncc(Cl)c1-c1cc(C(=O)NC(CN)Cc2cccc(F)c2)sc1Cl` (stereo unspecified) + COc1c(OCCCN2CCOCC2)ccc2c3n(c(=NC(=O)c4cnc(N)nc4)nc12)CCN3 the IC50 (second compound 0.00316 µM) was > 10000 nM, the IC50 (second compound 0.01 µM) was > 10000 nM and the IC50 (second compound 0.0316 µM) was 4960 nM. The IC50 (second compound 0.1 µM) was > 10000 nM, the IC50 (second compound 0.316 µM) was 149 nM and the IC50 (second compound 1 µM) was < 31.6 nM. For the same compound, the viability, T/C [1] was 93.7%, the viability, T/C [2] was 107% and the viability, T/C [3] was 73.8%. For the same compound, the viability, T/C [4] was 94.8%, the viability, T/C [25] was 84.8% and the viability, T/C [26] was 60.2%. It also gave a viability, T/C [5] of 88.5%, a viability, T/C [6] of 106% and a viability, T/C [7] of 76.2%. For the same compound, the viability, T/C [8] was 84.2%, the viability, T/C [27] was 67.3% and the viability, T/C [28] was 64.7%. For the same compound, the viability, T/C [9] was 84.1%, the viability, T/C [10] was 80.7% and the viability, T/C [11] was 70.5%. It also gave a viability, T/C [12] of 80.5%, a viability, T/C [29] of 57.8% and a viability, T/C [30] of 37.8%. It also gave a viability, T/C [13] of 76.4%, a viability, T/C [14] of 59.3% and a viability, T/C [15] of 77.9%. The viability, T/C [16] was 67.8%, the viability, T/C [31] was 52.8% and the viability, T/C [32] was 56.5%. For the same compound, the viability, T/C [17] was 59.1%, the viability, T/C [18] was 55.3% and the viability, T/C [19] was 45.1%. The viability, T/C [20] was 36%, the viability, T/C [33] was 52.5% and the viability, T/C [34] was 36.6%. For the same compound, the viability, T/C [21] was 40.4%, the viability, T/C [22] was 46.5% and the viability, T/C [23] was 30.9%. The viability, T/C [24] was 39.7%, the viability, T/C [35] was 31.4% and the viability, T/C [36] was 24.4%.
`Cn1nccc1Nc1nccc(-c2ccn(C(CO)c3ccc(Cl)c(F)c3)c(=O)c2)n1` (stereo unspecified) + COc1c(OCCCN2CCOCC2)ccc2c3n(c(=NC(=O)c4cnc(N)nc4)nc12)CCN3 was tested, and the IC50 (second compound 0.00316 µM) was > 10000 nM, the IC50 (second compound 0.01 µM) was > 10000 nM and the IC50 (second compound 0.0316 µM) was > 10000 nM. The IC50 (second compound 0.1 µM) was > 10000 nM, the IC50 (second compound 0.316 µM) was 65.1 nM and the IC50 (second compound 1 µM) was < 31.6 nM. The viability, T/C [1] was 117%, the viability, T/C [2] was 117% and the viability, T/C [3] was 86.2%. It also gave a viability, T/C [4] of 86.9%, a viability, T/C [25] of 137% and a viability, T/C [26] of 74.5%. The viability, T/C [5] was 96.2%, the viability, T/C [6] was 87.6% and the viability, T/C [7] was 96.4%. For the same compound, the viability, T/C [8] was 100%, the viability, T/C [27] was 97.5% and the viability, T/C [28] was 97.8%. For the same compound, the viability, T/C [9] was 73.5%, the viability, T/C [10] was 96.8% and the viability, T/C [11] was 72.9%. For the same compound, the viability, T/C [12] was 79.2%, the viability, T/C [29] was 83.1% and the viability, T/C [30] was 84.8%. The viability, T/C [13] was 61.1%, the viability, T/C [14] was 67% and the viability, T/C [15] was 55.6%. The viability, T/C [16] was 86.7%, the viability, T/C [31] was 58.9% and the viability, T/C [32] was 43.6%. The viability, T/C [17] was 58.5%, the viability, T/C [18] was 43% and the viability, T/C [19] was 34.8%. For the same compound, the viability, T/C [20] was 49.5%, the viability, T/C [33] was 57.5% and the viability, T/C [34] was 29.3%. For the same compound, the viability, T/C [21] was 44.4%, the viability, T/C [22] was 31% and the viability, T/C [23] was 40.7%. For the same compound, the viability, T/C [24] was 49.4%, the viability, T/C [35] was 42.9% and the viability, T/C [36] was 27.6%.
